Here are results for 6 compounds from patent US7981886B2, “Antibiotics derivatives” (Actelion Pharmaceutical Ltd., priority 2005, dated 2011).

Common to all, as to format: cell-based
One assay deals with P. aeruginosa 27853. The assay is described as follows: MIC by microdilution (NCCLS), P. aeruginosa 27853. The following applies: Pseudomonas aeruginosa, cation-adjusted Mueller-Hinton Broth, pH 7.2-7.3. On the procedure: (§1) These assays have been performed following the description given in “Methods for dilution Antimicrobial Susceptibility Tests for Bacteria that Grow Aerobically, 4th ed.; Approved standard: NCCLS Document M7-A4; National Committee for Clinical Laboratory Standards Villanova, Pa., USA, 1997”. Minimal inhibitory concentrations (MICs; mg/l) were determined in cation-adjusted Mueller-Hinton Broth (BBL) by a microdilution method following NCCLS guidelines (National Committee for Clinical Laboratory Standards. Methods for Dilution Antimicrobial Susceptibility). The pH of the test medium was 7.2-7.3.
(§2) All Examples were tested against several Gram positive and Gram negative bacteria.
Background: In broth dilution the organism is exposed to a series of concentrations in liquid medium.

Another assay has as its system S. aureus 29213. As to the kind of experiment: MIC by microdilution (NCCLS), S. aureus 29213. The following applies: Staphylococcus aureus, cation-adjusted Mueller-Hinton Broth, pH 7.2-7.3. On the procedure:
as §1, §2

The next assay has as its system S. aureus A798. The assay is described as follows: MIC by microdilution (NCCLS), S. aureus A798. The following applies: Staphylococcus aureus, cation-adjusted Mueller-Hinton Broth, pH 7.2-7.3. As for the experimental part:
as §1, §2

Another assay relates to H influenzae A921. As to the kind of experiment: MIC by microdilution (NCCLS), H influenzae A921. The following applies: cation-adjusted Mueller-Hinton Broth, pH 7.2-7.3. On the procedure: as §1, §2
The test system of the next assay is S. pneumoniae 49619. As to the kind of experiment: MIC by microdilution (NCCLS), S. pneumoniae 49619. The settings on record: Streptococcus pneumoniae, cation-adjusted Mueller-Hinton Broth, pH 7.2-7.3. As for the experimental part:
as §1, §2

The test system of a further assay is E. faecium A949. As to the kind of experiment: MIC by microdilution (NCCLS), E. faecium A949. The settings on record: Enterococcus faecium, cation-adjusted Mueller-Hinton Broth, pH 7.2-7.3. On the procedure:
as §1, §2

The subject of the next assay is M. catarrhalis A894. The assay is described as follows: MIC by microdilution (NCCLS), M. catarrhalis A894. The following applies: Moraxella catarrhalis, cation-adjusted Mueller-Hinton Broth, pH 7.2-7.3. On the procedure: as §1, §2
Another assay relates to E. faecalis 29212. As to the kind of experiment: MIC by microdilution (NCCLS), E. faecalis 29212. The settings on record: Enterococcus faecalis, cation-adjusted Mueller-Hinton Broth, pH 7.2-7.3. As for the experimental part: as §1, §2
Another assay concerns E. coli 25922. The assay is described as follows: MIC by microdilution (NCCLS), E. coli 25922. The settings on record: Escherichia coli, cation-adjusted Mueller-Hinton Broth, pH 7.2-7.3. As for the experimental part: as §1, §2

Values after ≈ are worked out from the molar mass of the structure shown.

Turning to `O=C1CSc2ccc(CNC3CCC(C(=O)c4nc5ccccc5s4)CC3)cc2N1` (stereo not drawn) [Example 1, 6-{[4-(benzothiazole-2-carbonyl)-cyclohexylamino]-methyl}-4H-benzo[1,4]thiazin-3-one], the MIC with P. aeruginosa 27853 is 16 µg/mL (≈ 36.6 µM); in the assay with S. aureus 29213, 0.25 µg/mL (≈ 0.571 µM); against S. aureus A798 it was 0.125 µg/mL (≈ 0.286 µM); against H influenzae A921, 0.063 µg/mL (≈ 0.144 µM); against S. pneumoniae 49619, 2 µg/mL (≈ 4.57 µM); against E. faecium A949, 1 µg/mL (≈ 2.29 µM). The MIC was at most 0.031 µg/mL in the assay with M. catarrhalis A894, 0.5 µg/mL (≈ 1.14 µM) against E. faecalis 29212 and 0.5 µg/mL (≈ 1.14 µM) against E. coli 25922.

Take `Cc1cccc2sc(C(=O)[C@H]3CC[C@H](NCc4ccc5c(c4)NC(=O)CS5)CC3)nc12` [Example 4, 6-{[trans-4-(4-methyl-benzothiazole-2-carbonyl)-cyclohexylamino]-methyl}-4H-benzo[1,4]thiazin-3-one]: the MIC amounted to 4 µg/mL (≈ 8.86 µM) with P. aeruginosa 27853; 0.125 µg/mL (≈ 0.277 µM) with S. aureus 29213; 0.063 µg/mL (≈ 0.139 µM) in the assay on S. aureus A798; 0.25 µg/mL (≈ 0.554 µM) in the assay with H influenzae A921; 1 µg/mL (≈ 2.21 µM) against S. pneumoniae 49619; 0.25 µg/mL (≈ 0.554 µM) in the assay with E. faecium A949. Further, the MIC in the assay with M. catarrhalis A894 was at most 0.031 µg/mL; against E. faecalis 29212, 0.5 µg/mL (≈ 1.11 µM); in the assay with E. coli 25922, 1 µg/mL (≈ 2.21 µM).

Consider `COc1cccc2sc(C(=O)[C@H]3CC[C@H](NCc4ccc5c(n4)NC(=O)CS5)CC3)nc12` [Example 23, 6-{[trans-4-(4-methoxy-benzothiazole-2-carbonyl)-cyclohexylamino]-methyl}-4H-pyrido[3,2-b][1,4]thiazin-3-one], for which the MIC in the assay on P. aeruginosa 27853 is above 16 µg/mL; with S. aureus 29213, 1 µg/mL (≈ 2.13 µM); with S. aureus A798, 0.5 µg/mL (≈ 1.07 µM); in the assay on H influenzae A921, 8 µg/mL (≈ 17.1 µM); against S. pneumoniae 49619, 4 µg/mL (≈ 8.54 µM); against E. faecium A949, 8 µg/mL (≈ 17.1 µM). Also, the MIC against M. catarrhalis A894 came to 0.25 µg/mL (≈ 0.533 µM); in the assay on E. faecalis 29212, 8 µg/mL (≈ 17.1 µM); in the assay with E. coli 25922 it was 16 µg/mL (≈ 34.1 µM).

Take `COc1cccc2sc(O[C@H]3CC[C@H](NCc4ccc5c(c4)NC(=O)CS5)CC3)nc12` [Example 28, 6-{[trans-4-(4-methoxy-benzothiazol-2-yloxy)-cyclohexylamino]-methyl}-4H-benzo[1,4]thiazin-3-one]: the MIC in the assay on P. aeruginosa 27853 is above 16 µg/mL; in the assay on S. aureus 29213, 8 µg/mL (≈ 17.6 µM); against S. aureus A798 it was 1 µg/mL (≈ 2.19 µM); in the assay with H influenzae A921 it was 16 µg/mL (≈ 35.1 µM); in the assay with S. pneumoniae 49619, 16 µg/mL (≈ 35.1 µM); in the assay with E. faecium A949 it was 16 µg/mL (≈ 35.1 µM). In addition, the MIC against M. catarrhalis A894 turned out to be 0.125 µg/mL (≈ 0.274 µM); in the assay with E. faecalis 29212, 16 µg/mL (≈ 35.1 µM); in the assay with E. coli 25922, 16 µg/mL (≈ 35.1 µM).

Take `COc1cccc2sc(C(=O)[C@@H]3CC[C@@H](NCc4ccc5c(n4)NC(=O)CS5)CO3)nc12` [Example 29, (3R,6S)-6-{[6-(4-methoxy-benzothiazole-2-carbonyl)-tetrahydro-pyran-3-ylamino]-methyl}-4H-pyrido[3,2-b][1,4]thiazin-3-one]: the MIC was above 16 µg/mL against P. aeruginosa 27853; 1 µg/mL (≈ 2.13 µM) in the assay with S. aureus 29213; 2 µg/mL (≈ 4.25 µM) against S. aureus A798; 2 µg/mL (≈ 4.25 µM) against H influenzae A921; 4 µg/mL (≈ 8.5 µM) against S. pneumoniae 49619; 1 µg/mL (≈ 2.13 µM) against E. faecium A949. In addition, the MIC in the assay on M. catarrhalis A894 was determined as 0.125 µg/mL (≈ 0.266 µM); in the assay with E. faecalis 29212 it was 2 µg/mL (≈ 4.25 µM); in the assay with E. coli 25922, 16 µg/mL (≈ 34 µM).

`COc1cccc2sc(C(=O)C3CCN(CC(=O)c4ccc5c(c4)NC(=O)CO5)CC3)nc12` [Example 34, 6-{2-[4-(4-methoxy-benzothiazole-2-carbonyl)-piperidin-1-yl]-acetyl}-4H-benzo[1,4]oxazin-3-one]: the MIC in the assay with P. aeruginosa 27853 was above 16 µg/mL; in the assay with S. aureus 29213 it was 1 µg/mL (≈ 2.15 µM); against S. aureus A798 it was 2 µg/mL (≈ 4.3 µM); against H influenzae A921 it was 2 µg/mL (≈ 4.3 µM); in the assay on S. pneumoniae 49619, 16 µg/mL (≈ 34.4 µM); in the assay on E. faecium A949, 4 µg/mL (≈ 8.59 µM). The MIC against M. catarrhalis A894 stood at 0.25 µg/mL (≈ 0.537 µM); with E. faecalis 29212, 16 µg/mL (≈ 34.4 µM); against E. coli 25922 it was 16 µg/mL (≈ 34.4 µM).
